Experimental data published in patent US7807844B2, “TGF-β gene expression inhibitor” (Nihon University, priority 2003, dated 2010).

Experiments:
hTGF-β1 mRNA = test: RT-PCR assay of hTGF-β1 mRNA in hVSMC; assay type: cell-based, human; settings: for expression of hTGF-β1 mRNA: 10^−9 M, 24 hr, TPA induced
Method: Treatment with 50 ng/mL of TPA was used as a positive control. […] (A) Five microliters of PCR product was separated on a 1.5% agarose gel electrophoresis. […] Cultured cells were washed with PBS, dissolved in 800 μL of RNAzolB (Biotex Laboratories, Inc., Houston, Tex.), mixed with 80 μL of chloroform and centrifuged. The colorless upper aqueous phase was mixed with an equal volume of isopropanol to precipitate RNA. RNA pellet was washed twice with 500 μL of 75% ethanol and, after drying, dissolved in 10 μL of TE buffer. After denaturing at 65° C. for 15 min, the RNA sample was treated with 0.5 U DNase (Gibco) in 0.5 ml of DNase buffer (20 mM Tris-HCl pH 8.3, 50 mM KCl, 2.5 mM MgCl2) at room temperature for 45 min. DNase was denatured by adding 0.5 ml of 0.5M EDTA and heating at 98° C. for 10 min. RNA aliquots of an equal amount (1 μg/20 μL) were reverse transcribed to single stranded cDNAs using 2.5 U/20 μL of avian myeloblastosis virus reverse transcriptase (Takara Biochemicals, Osaka, Japan) in 10 mM Tris-HCl (pH 8.3), 5 mM MgCl2, 50 mM KCl, 1 mM deoxy NTPs and 2.5 μM random hexamers. Two microliters of the diluted cDNA product was made up to 25 μl by mixing with 10 mM Tris-HCl (pH 8.3), 50 mM KCl, 4 mM MgCl2, 0.025 U/μL Taq DNA polymerase (Takara Biochemicals, Osaka, Japan), and 0.2 μM each of the upstream sense primer and downstream antisense primer. […] For human 18S ribosomal RNA, the sense primer ([…] NO: 6) and the antisense primer ([NT] ID NO: 7) were used as the internal control. PCR was carried out with an automatic heat controller (Perkin Elmer, Foster, Calif.). The PCR conditions were: initial denaturation, at 94° C. for 2 min; 30 cycles of denaturation at 94° C. for 1 min, annealing at 58° C. for 1 min and extension at 72° C. for 1 min; last extension at 72° C. for 1 min. As an internal control, PCR with primers for 18S rRNA was included in each reaction. […] For semi-quantitative analysis of mRNA, the kinetics of PCR was monitored. […] The intensity of the bands was measured by computer analysis using NIH software.

hTGF-β1 promoter [1] = test: Transient transfection and luciferase assay in hVSMC; assay type: cell-based, human; settings: for expression of luciferase driven by hTGF-β1 promoter: 10^−9 M, 24 hr incubation
Method: One microgram of the luciferase gene which was controlled by the hTGF-β1 promoter was transfected for 6 hr in sterilized medium using lipofectin reagent. After 24 hr of the transfection, cells were incubated for 24 hr in a medium containing 0.5% CS in the presence (or absence) of the polyamide or the mismatched polyamide, and the luciferase activity was assayed in these cells extracts using a dual luciferase/reporter gene assay system. One hundred μL of luciferase substrate was mixed with 20 μL cell extracts. After the mixing, the reaction mixture was placed in a luminometer (Turner Designs-Bioblock, Illkirch, France), and the light emitted for ten seconds at room temperature was measured. PMA was used as a positive control. Comparison with the control *P<0.05.
(§1) The 2.2 kb fragment containing the hTGF-β1 promoter derived from plasmid phTBG 101 (non-patent document 10) was isolated and inserted to pGL3 basic plasmid (Promega, Madison, Wis.) at the upstream of the coding region of luciferase reporter gene. The accurate structure of the constructed plasmid was identified by spectral analysis with restriction enzymes analysis and sequencing.
hVSMC cells were cultured at a density of […] in 24 well plates in the presence of 10% CS. After 24 hr, the reporter gene that was driven by the hTGF-β1 promoter was transfected using Lipofectin reagent (GibcoBRL) in the presence of 1 μg DNA in the sterilized medium, according to the method indicated by the manufacturer. Cells were incubated with the DNA liposome complex for 6 hours, and then the medium was exchanged to 1 ml of fresh complete medium. […] After brief centrifugation, luciferase activity in the cell extracts was measured using a dual-luciferase reporter gene assay system (Promega, Madison, Wis.). […] After mixing, the reaction mixture was placed in a luminometer (Turner Designs-Bioblock, Illkirch, France), and the light emitted for ten seconds at room temperature was measured.

hTGF-β1 promoter [2] = test: In vitro transcription reaction with HeLa nuclear extract; assay type: biochemical, human; settings: HeLa nuclei extract, hTGF-β1 promoter template, 30° C., 60 min
Method: One microgram of a plasmid was incubated in the transcription buffer with 8 U of HeLa nucleus extract, 3 kinds of non-labeled nucleotide triphosphates (UTP, CTP, GTP) at […] each, and 25 μM α-^32P-ATP at 30° C. for 60 min. The reaction was terminated by adding 175 μl of HeLa extract stop solution, and then phenol-chloroform-isoamyl alcohol extraction and ethanol precipitation were carried out. Samples were re-suspended in 98% […] loading dye and heated at 90° C. for 10 min before loading a 6%, 7 M urea-polyacrylamide gel. The gel was dried and visualized by autoradiography;
as §1
In vitro transcription reactions were carried out using nuclear extracts of Hela cells and the in vitro transcription system (Promega, Madison, Wis.). […]

hTGF-β1 protein = test: Western blot analysis of hTGF-β1 protein in hVSMC; assay type: cell-based, human; settings: 10^−9 M, 24 hr incubation
Method: 10^−9 M of the polyamide was added to medium of cultured hVSMC and incubated for 24 hr. (A) The expression of hTGFβ1 protein was investigated by Western blot analysis.
Test VSMC and control VSMC were incubated in 6-well plates for 24 hr, washed twice with PBS and incubated on ice in 300 μL of lysis buffer (50 mM Tris-HCl (pH 8.0), 150 mM NaCl, 1 mM EDTA, 1 mM phenylmethylsulfonyl fluoride, 1 μg/mL aprotinin, 1% Triton X-100) for 30 min. Cells were scraped into a 1.5 mL tube and centrifuged, and the supernatant was collected. The protein content of the supernatant was assayed by Bradford protein assay using BIO-RAD protein assay kit (Bio-Rad Lab, Hercules, Calif.). The supernatant contained 20 μg of total protein, which was denatured at 100° C. for 3 min in the loading buffer, electrophoresed on a 10% polyacrylamide gel and transferred to a nitrocellulose membrane. The membrane was incubated at room temperature for 1 hr with mouse monoclonal antibody with specificity to hTGF-β1 (1:500) (R&D systems, Minneapolis, Minn.), and then incubated at room temperature for 1 hr with anti-mouse HRP conjugated secondary antibody at 1:2000. After washing sufficiently, the membrane was incubated with an […] luminescence substrate (Amersham Life Service, Buckinghamshire, UK) and exposed to an X-ray film.

[3] = test system: double stranded oligonucleotide corresponding to the base pairs from −548 to −537 of hTGF-β1 promoter; test: Gel-shift assay: binding of polyamide to double stranded oligonucleotide; design: species or system human; settings: binding buffer, 37° C., 15 min; 20% polyacrylamide gel, autoradiography
Method: The double stranded DNA corresponding to the base pair sequence from −548 to −537 of the hTGF-β1 promoter (FIG. 1) was labeled by T4 polynucleotide using [γ-^32P]-ATP and incubated in a binding buffer at 37° C. for 15 min together with mismatch polyamide (lane 0) or with increasing amount of the polyamide (lane 1, 2 and 3 was 1 nM, 2 nM and 4 nM, respectively). The complexes thus obtained were electrophoresed on a 20% polyacrylamide gel and visualized by autoradiography.
Oligonucleotides were synthesized, annealed, and 12 kinds of double stranded oligonucleotides were produced corresponding to the base pairs from −548 to −537 of hTGF-β1 promoter (FIG. 1A). The double stranded DNAs were labeled with [γ-^32P]-ATP using T4 polynucleotide kinase, and incubated in a binding buffer (40 mM Tris, pH 7.9, 250 mM NaCl, 25 mM EDTA, 25 mM DTT, 100 mM KCl) with the polyamides or mismatched polyamides at 37° C. for 15 min. The complexes thus obtained were electrophoresed by 20% polyacrylamide gel and visualized by autoradiography.

Method for cultured hVSMC: FITC labeled polyamide was added directly to the culture medium at the concentration of 10^−9 M and observed under a fluorescent microscope.
hVSMC was obtained from Clonetics (Walkersville, Md.). hVSMC was cultured in Dulbecco's modified Eagle's medium (DMEM) containing 10% calf serum (Gibco Life Technologies, Gaithersburg, Md.), 100 U/ml penicillin and 100 mg/ml streptomycin. Cells were passaged by trypsin treatment with 0.05% trypsin (Gibco) in Ca^2+-free and Mg^2+-free phosphate buffered saline (PBS) and cultured in 75-cm^2 tissue culture flasks. The medium was exchanged every four or five days, and experiments were carried out on cells during 5-10 passages.
Passaged hVSMC was cultured at a density of 10^5/cm^2 for 24 hr in a 24-well flask. FITC-labeled polyamides were directly added to the medium at a concentration of 10^−9 M and observed every one hour under a florescent microscope.

Row | binding to the corresponding 12 base pairs double stranded oligonucleotide [3] | Compound | expression of hTGF-β1 mRNA (positive control) (hTGF-β1 mRNA; 50 ng/mL) | expression of luciferase driven by hTGF-β1 promoter (positive control) (hTGF-β1 promoter [1]; positive control) | detection of FITC in the nuclei of cultured hVSMC (cultured hVSMC) | time FITC labeled polyamide remains in the nucleus of cultured hVSMC (cultured hVSMC) | transcription in in vitro transcription system (hTGF-β1 promoter [2]) | expression of hTGF-β1 protein (hTGF-β1 protein) | expression of hTGF-β1 mRNA (hTGF-β1 mRNA) | expression of luciferase driven by hTGF-β1 promoter (hTGF-β1 promoter [1])
1 | – | CCCCCCCCCCCCCC(=O)O[C@@H]1[C@@H](C)[C@@]2(O)[C@@H](C=C(CO)C[C@]3(O)C(=O)C(C)=C[C@@H]23)[C@H]2C(C)(C)[C@]12OC(C)=O [TPA] | significantly stimulated the expression of hTGF-β1 mRNA | stimulated the expression of luciferase protein | – | – | – | – | – | –
2 | – | CN(C)CCCNC(=O)CCNC(=O)c1cc(NC(=O)c2cc(NC(=O)CCNC(=O)c3cc(NC(=O)c4cc(NC(=O)c5cc(NC(=O)CCCNC(=O)c6cc(NC(=O)c7cc(NC(=O)c8nc(NC(=O)CCNC(=O)c9cc(NC(=O)c%10cc(NC(=O)c%11nc(NC(=O)CCNC(=S)Nc%12ccc%13c(c%12)C(=O)OC%13%12c%13ccc(O)cc%13Oc%13cc(O)ccc%13%12)cn%11C)cn%10C)cn9C)cn8C)cn7C)cn6C)cn5C)cn4C)cn3C)cn2C)cn1C [compound 4a, FITC-β-IPP-β-IPP-γ-PPP-β-PP-β Dp] | – | – | detected in the nuclei of cultured hVSMC at a high density | more than 48 hr | – | – | – | –
3 | able to bind | CC(=O)Nc1cn(C)c(C(=O)Nc2cc(C(=O)Nc3cc(C(=O)NCCC(=O)Nc4cn(C)c(C(=O)Nc5cc(C(=O)Nc6cc(C(=O)NCCCC(=O)Nc7cc(C(=O)Nc8cc(C(=O)Nc9cc(C(=O)NCCC(=O)Nc%10cc(C(=O)Nc%11cc(C(=O)NCCC(=O)O)n(C)c%11)n(C)c%10)n(C)c9)n(C)c8)n(C)c7)n(C)c6)n(C)c5)n4)n(C)c3)n(C)c2)n1 [compound 4b, Ac-IPP-β-IPP-γ-PPP-β-PP-βCOOH] | – | – | – | – | reduce transcription | inhibited the expression of hTGF-β1 protein | inhibited the expression of hTGF-β1 mRNA induced by TPA | significantly downregulated the expression of luciferase
4 | failed to bind | Ac-PPP-β-IPP-γ-PPP-β-COOH [mismatch polyamide] | – | – | – | – | did not show any significant effect | – | did not | had no effect
